From patent US20230263164A1 (priority 2020, published 2023)
Where a name gives a salt, the structure may show the parent alone. Read-outs that look alike come from different tables or passages of the source.

What was measured:
physchem = settings: buffer, t1/2 (days) of first step
people = settings: cited from earlier work
[1] = type: physicochemical
[2] = 90% H2O/D2O; for Percent Degradation: 31P NMR
[3] = not given; remark: listed apart in the source
corn plants = type: in vivo
pea plants = assay: Growth of peas exposed to dibutyldithiophosphate (pots, 88 days); type: in vivo
Experimental: Peas were planted and grown in 8.25 inch TEKU pots. The pots were packed finger tight with potting mix #4 from Beautiful Land Products. The pea seeds were planted approximately 1.5 inches deep. 25 seeds were planted per dosing of dibutyldithiophosphate potassium salt. After the seeds were planted into the soil the desired amount of dibutyldithiophosphate for 32 doses was added to 160 mL of tap water. After mixing well for 10 minutes, 5 mL of the dibutyldithiophosphate solution was then added to the top of each seed after it was planted in the soil. Soil was then used to cover the seed. After adding the salt, the plants were moved outside in full sunlight until harvest. The pea plants were watered daily. Peter's Professional B 20-20-20 water soluble fertilizer was used at 1 tablespoon per 3 gallons of tap water and 350 mL of this solution was added to each plant. Plants were fertilized on day 44, 51, 66, 73, and 81.
The pea plants were harvested after 88 days. The plant was harvested by cutting the above soil portion of the plant at the root-stem boundary. The above ground portion of the plant was weighed in its entirety. Next the pods were removed, counted and weighed separately from the rest of the plant. Statistical analysis was performed using IBM SPSS Statistics 25. Dunnett's 2-sided t-test was performed to determine significance. Data represented are mean±standard error with ** indicating α<0.05 and * indicating α<0.1.

soybeans = assay: Field trial: harvest yield of soybeans; type: in vivo; settings: 2 kg (per acre), side dressing, vs plants not exposed
Text: All essential plant nutrients (N, P, K, and S) were applied in non-limiting amounts. Prior to planting soybeans, the fields were fertilized with 60 lb acre of P2O5, 80 lb per acre of K2O, and 20 lb per acre of sulfur. The soybean seeds were a 2.8-3.2 relative maturity planted at 120,000 to 140,000 seeds per acre. All field management were designed to effectively control weed and insect pests to optimize soybean growth and yield. The soybeans were planted and either 0, 0.5, 1.0, or 2.0 kg per acre of dibutyldithiophosphate was applied as a side dressing to the soybean plants. The dibutyldithiophosphate was dissolved in water and applied. The harvest weight was determined for each plot and corrected for slight differences in moisture content.

radish = settings: cited from earlier work
peas = settings: in vivo; cited from earlier work
lettuce plants = settings: in vivo; cited from earlier work
[4] = hydrolysis, rate constants 25 to 85° C.
[5] = 85° C., 90% H2O/D2O, only phosphoric acid observed
[6] = water buffered at pH 6.7, FIG. 4
[7] = 20 mg per plant, potassium salt, 88 days

## S=P(S)(Sc1ccccc1)Sc1ccccc1 [Example 13]
physchem
  half-life: 31.2 h

## S [Example H2S, hydrogen sulfide]
people; exposure in the air
  level in the air that can lead to negative health effects (headaches, breathing problems in asthma): 2 ppm
people; exposure
  level immediately dangerous to life and health: 100 ppm

## CCCSP(=S)(S)SCCC [Example 10]
physchem
  half-life: 3.12 h

## CC(C)[C@@H]1CC[C@@H](C)C[C@H]1OP(=S)([S-])O[C@@H]1C[C@H](C)CC[C@H]1C(C)C.[K+] [Example 5]
pH 6.7
  release of H2S: released H2S

## CC(C)(C)OP(=S)(S)OC(C)(C)C [Example 8, di(tert-butanol)dithiophosphate Sodium Salt]
[1]; 25° C.
  ΔG^‡ (25° C.): 25.26 kcal/mol
  −TΔS^‡ (25° C.): -2.58 kcal/mol
[1]; 25° C. vs 85° C.
  ΔΔG^‡: 0.526 kcal/mol
[1]; 85° C.
  ΔG^‡ (85° C.): 24.74 kcal/mol
[1]; hydrolysis
  sign of ΔS^‡ (in words): positive
[1]; [4]
  ΔH^‡: 27.84 kcal/mol
  ΔS^‡: 36.3 J/mol · K
[2]; room temperature, 30 days
  hydrolysis after 30 days: completely hydrolyzed
[2]; 30 days, room temperature
  Percent Degradation: 100%
[2]; day 12, room temperature
  percent degraded: 62%
[2]; day 20, room temperature
  percent degraded: 88%
[3]; 85° C., 90% H2O/D2O
  Rate of first-step of hydrolysis (85° C.): 13.2 h⁻¹
[3]; [5]
  Time to complete hydrolysis: 0.0493 days
[3]; room temperature vs 85° C.
  rate of hydrolysis, fold slower at room temperature than at 85° C.: 2,600 ×
[3]; room temperature, 90% H2O/D2O
  Rate of first-step of hydrolysis: 0.0051 h⁻¹
  Time to complete hydrolysis: 30 days
[6]
  release of H2S (rank among the dithiophosphates): highest release of H2S

## S=P1(S)OCCS1 (stereo not drawn) [Example 14]
pH 6.7
  release of H2S (rank among the dithiophosphates): highest release of H2S

## S=P1(S)SCCCS1 [Example 12]
physchem
  half-life: 36 h

## CCc1ccc(OP(=S)([S-])Oc2ccc(CC)cc2)cc1.[K+] [Example 6]
physchem
  half-life: 93.6 h

## CCCCOP(=S)(S)OCCCC [dibutyldithiophosphate]
Corn plants; in vivo
  heights of corn plants: Little statistically significant difference
  weight of corn plants: improvements in weights
  weight of corn plants (significance): statistically significant improvements
Pea plants; 10 mg per plant, potassium salt, 88 days
  number of pods, plant weight and total pod weight: statistically significant increase
Pea plants; [7]
  increase in number of pods: 55%
  increase in plant weight: 46%
  increase in total pod weight: 45%
Pea plants; 150 mg and 500 mg, potassium salt
  germination compared to the control plants: reduction in germination
Pea plants; 150 mg, 25 seeds planted per dosing
  number of plants germinating: 6 plants
Pea plants; 500 mg
  germination of seeds: None of the seeds
soybeans
  increase in harvest yield of soybeans: 4.4%

## C1COCCN1.COc1ccc(P(=S)(S)N2CCOCC2)cc1 (stereo not drawn) [GYY-4137]
radish; in vivo
  growth of radish plants: increased the growth
radish; milligram loadings
  harvest yield of radishes: doubled
peas
  growth of pea plants: increased the growth
Lettuce plants
  growth of lettuce plants: increased the growth

## S=P1(S)SCCS1 [Example 11]
physchem
  half-life: 2.04 h

## CCCCOP(=S)(S)OCCCC [Example 1, Dibutyldithiophosphate Ammonium Salt]
Corn plants; 1 mg ammonium salt added to soil adjacent to seed, 4 weeks, vs plants grown without
  increase in weight of corn plants: 39%
[2]; 30 days, room temperature
  Percent Degradation: <3%
[3]; 85° C., 90% H2O/D2O
  Rate of first-step of hydrolysis (85° C.): 0.00096 h⁻¹
[3]; [5]
  Time to complete hydrolysis: 180 days
[3]; 85° C., Table 2
  rate of hydrolysis, fold slower than the compound of Example 2: 3.5 ×
  rate of hydrolysis, fold slower than the dithiophosphate of Example 3: 7.4 ×
  rate of hydrolysis, fold slower than the dithiophosphate of Example 4: 1.4 ×
[6]
  release of H2S (rank among the dithiophosphates): lowest release of H2S

## CC1COP(=S)([S-])O1.[K+] (stereo not drawn) [Example 3]
physchem
  half-life: 98.4 h

## S=P1(S)OCCO1 [Example 2]
physchem
  half-life: 204 h
